# Source: patent publication US4138554A, “7-[D-α-(4-Hydroxy-1,5-naphthyridine-3-carboxamido)-α-phenyl (and p-hydroxyphenyl)acetamido]-3-carbamoyloxymethyl-3-cephem-4-carboxylic acids” (priority 1977, dated 1979)
# Where two headings read alike, the source gives them in different places.
# Key:
# [1] = system: Pseudomonas aeruginosa; assay: MIC by agar dilution against 61 strains of Pseudomonas aeruginosa, secondary evaluation; format: cell-based; settings: Pseudomonas aeruginosa
# Method in brief: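 Compounds were diluted two-fold serially into Mueller-Hinton agar, then organisms were applied using Steers' apparatus and MICs read. The primary panel comprised 31 test organisms, and the secondary evaluation 61 strains of P. aeruginosa.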
# [2] = Mouse blood levels after subcutaneous injection; format: in vivo; settings: blood, sc, subcutaneous, read-out: Blood Levels
# From the text: |Mouse Blood Levels | Blood Levels in Mcg./Ml. at | Indicated Hours After Subcu- |Dose in taneous Injection
structure (smiles),measurement,setting,value
"CC1(C)S[C@@H]2[C@H](NC(=O)C(c3ccccc3)S(=O)(=O)O)C(=O)N2[C@H]1C(=O)O (some centres unmarked) [Sulbenicillin, sulbenicillin]",MIC,"[1]; BBRI Pa-No. 31, Table 7, read-out: MIC",3.1 µg/mL
same,MIC,"[1]; BBRI Pa-No. 32, Table 2, read-out: MIC",25 µg/mL
same,MIC,"[1]; BBRI Pa-No. 32, Table 7, read-out: MIC",25 µg/mL
same,MIC,"[1]; BBRI Pa-No. 33, Table 2, read-out: MIC",100 µg/mL
same,MIC,"[1]; BBRI Pa-No. 33, Table 7, read-out: MIC",25 µg/mL
same,MIC,"[1]; BBRI Pa-No. 34, Table 2, read-out: MIC",25 µg/mL
same,MIC,"[1]; BBRI Pa-No. 35, Table 2, read-out: MIC",100 µg/mL
same,MIC,"[1]; BBRI Pa-No. 35, Table 7, read-out: MIC",50 µg/mL
same,MIC,"[1]; BBRI Pa-No. 36, Table 2, read-out: MIC",1.6 µg/mL
same,MIC,"[1]; BBRI Pa-No. 36, Table 7, read-out: MIC",0.8 µg/mL
same,MIC,"[1]; BBRI Pa-No. 37, Table 2, read-out: MIC",50 µg/mL
same,MIC,"[1]; BBRI Pa-No. 37, Table 7, read-out: MIC",25 µg/mL
same,MIC,"[1]; BBRI Pa-No. 38, Table 2, read-out: MIC",50 µg/mL
same,MIC,"[1]; BBRI Pa-No. 38, Table 7, read-out: MIC",100 µg/mL
same,MIC,"[1]; BBRI Pa-No. 39, Table 2, read-out: MIC",25 µg/mL
same,MIC,"[1]; BBRI Pa-No. 39, Table 7, read-out: MIC",25 µg/mL
same,MIC,"[1]; BBRI Pa-No. 41, Table 2, read-out: MIC",25 µg/mL
same,MIC,"[1]; BBRI Pa-No. 41, Table 7, read-out: MIC",25 µg/mL
same,MIC,"[1]; BBRI Pa-No. 42, Table 2, read-out: MIC",> 100 µg/mL
same,MIC,"[1]; BBRI Pa-No. 42, Table 7, read-out: MIC",> 100 µg/mL
same,MIC,"[1]; BBRI Pa-No. 43, Table 2, read-out: MIC",50 µg/mL
same,MIC,"[1]; BBRI Pa-No. 43, Table 7, read-out: MIC",25 µg/mL
same,MIC,"[1]; BBRI Pa-No. 44 (unnamed strain), Table 7, read-out: MIC",50 µg/mL
same,MIC,"[1]; BBRI Pa-No. 44, Table 2, read-out: MIC",50 µg/mL
same,MIC,"[1]; BBRI Pa-No. 51, Table 2, read-out: MIC",25 µg/mL
same,MIC,"[1]; BBRI Pa-No. 51, Table 7, read-out: MIC",25 µg/mL
same,MIC,"[1]; BBRI Pa-No. 52, Table 2, read-out: MIC",25 µg/mL
same,MIC,"[1]; BBRI Pa-No. 52, Table 7, read-out: MIC",50 µg/mL
same,MIC,"[1]; BBRI Pa-No. 53, Table 2, read-out: MIC",25 µg/mL
same,MIC,"[1]; BBRI Pa-No. 53, Table 7, read-out: MIC",25 µg/mL
same,MIC,"[1]; BBRI Pa-No. 54, Table 2, read-out: MIC",50 µg/mL
same,MIC,"[1]; BBRI Pa-No. 54, Table 7, read-out: MIC",25 µg/mL
same,MIC,"[1]; BBRI Pa-No. 55, Table 2, read-out: MIC",25 µg/mL
same,MIC,"[1]; BBRI Pa-No. 55, Table 7, read-out: MIC",25 µg/mL
same,MIC,"[1]; BBRI Pa-No. 56, Table 2, read-out: MIC",25 µg/mL
same,MIC,"[1]; BBRI Pa-No. 56, Table 7, read-out: MIC",25 µg/mL
same,MIC,"[1]; BBRI Pa-No. 57, Table 2, read-out: MIC",25 µg/mL
same,MIC,"[1]; BBRI Pa-No. 57, Table 7, read-out: MIC",25 µg/mL
same,MIC,"[1]; BBRI Pa-No. 58, Table 2, read-out: MIC",50 µg/mL
same,MIC,"[1]; BBRI Pa-No. 58, Table 7, read-out: MIC",50 µg/mL
same,MIC,"[1]; BBRI Pa-No. 59, Table 2, read-out: MIC",50 µg/mL
same,MIC,"[1]; BBRI Pa-No. 59, Table 7, read-out: MIC",25 µg/mL
same,MIC,"[1]; BBRI Pa-No. 61, Table 2, read-out: MIC",50 µg/mL
same,MIC,"[1]; BBRI Pa-No. 61, Table 7, read-out: MIC",25 µg/mL
same,MIC,"[1]; BBRI Pa-No. 62, Table 2, read-out: MIC",> 100 µg/mL
same,MIC,"[1]; BBRI Pa-No. 62, Table 7, read-out: MIC",> 100 µg/mL
same,MIC,"[1]; BBRI Pa-No. 64, Table 2, read-out: MIC",25 µg/mL
same,MIC,"[1]; BBRI Pa-No. 64, Table 7, read-out: MIC",25 µg/mL
same,MIC,"[1]; BBRI Pa-No. 65, Table 2, read-out: MIC",25 µg/mL
same,MIC,"[1]; BBRI Pa-No. 65, Table 7, read-out: MIC",25 µg/mL
same,MIC,"[1]; BBRI Pa-No. 66, Table 2, read-out: MIC",25 µg/mL
same,MIC,"[1]; BBRI Pa-No. 66, Table 7, read-out: MIC",25 µg/mL
same,MIC,"[1]; BBRI Pa-No. 67, Table 2, read-out: MIC",50 µg/mL
same,MIC,"[1]; BBRI Pa-No. 67, Table 7, read-out: MIC",25 µg/mL
same,MIC,"[1]; BBRI Pa-No. 68, Table 2, read-out: MIC",50 µg/mL
same,MIC,"[1]; BBRI Pa-No. 68, Table 7, read-out: MIC",50 µg/mL
same,MIC,"[1]; BBRI Pa-No. 69, Table 2, read-out: MIC",50 µg/mL
same,MIC,"[1]; BBRI Pa-No. 69, Table 7, read-out: MIC",100 µg/mL
same,MIC,"[1]; BBRI Pa-No. 70, K-Ps102 (CR-102), Table 2, read-out: MIC",25 µg/mL
same,MIC,"[1]; BBRI Pa-No. 70, K-Ps102(CR-102), Table 7, read-out: MIC",50 µg/mL
same,MIC,[1]; GN315,12.5 µg/mL
same,MIC,"[1]; GN315, BBRI Pa-No. 27, GN315, Table 2, read-out: MIC",50 µg/mL
same,MIC,"[1]; GN4925, BBRI Pa-No. 44, GN4925, Table 7, read-out: MIC",50 µg/mL
same,MIC,"[1]; GN4925, BBRI Pa-No. 45, GN4925, Table 2, read-out: MIC",50 µg/mL
same,concentration at 0.25 h,"[2]; 20 mg/kg, 20 Mgm./Kg.",9800 ng/mL
same,concentration at 0.5 h,"[2]; 20 mg/kg, 20 Mgm./Kg.",7500 ng/mL
same,concentration at 1 h,"[2]; 20 mg/kg, 20 Mgm./Kg.",1200 ng/mL
same,concentration at 0.25 h,"[2]; 40 mg/kg, 40 Mgm./Kg.",22000 ng/mL
same,concentration at 0.5 h,"[2]; 40 mg/kg, 40 Mgm./Kg.",14000 ng/mL
same,concentration at 1 h,"[2]; 40 mg/kg, 40 Mgm./Kg.",5000 ng/mL
same,concentration at 2 h,"[2]; 40 mg/kg, 40 Mgm./Kg., 2.0 hours",< 1000 ng/mL
